Measurements from patent US20210177879A1, “VITAMIN D RECEPTOR AGONIST” (Guanghzou University of Chinese Medicine, priority 2018, published 2021).

Tests used:
[1] = test system: SW1990 breast cancer cells; test: In vitro proliferation inhibition of SW1990 breast cancer cells; type: cell-based; conditions: concentration of 1 uM; compared with blank control group
Protocol: (§1) The SW1990 cells were thawed, and cultured in a changed medium after 24 hours. Medium preparation method: 6% serum, 1% of a bispecific antibody+a 1640 basal medium. After grown to confluent, the cells were digested and subcultured to expand the number of cells. When reached the required amount, the cells were digested by trypsin, centrifuged, and resuspended in PBS to prepare a cell suspension of 1×10^8 cells/ml. A part of the cell suspension was added with the monotropein, desacetyl asperulosidic acid, asperuloside, and asperulosidic acid respectively, and the inhibition rate (%) of tumor cell proliferation by each of these different compounds was examined.

[2] = test system: HT29 transplanted tumor; test: Transplanted tumor of HT29 colon cancer cells in nude mice; type: in vivo; conditions: 2 mg/kg in combination with 5-fluorouracil at half dose (20 mg/kg), once a day; effect comparable to 5-fluorouracil alone 40 mg/kg
Protocol: as §1, with “HT29” for “SW1990”
(§2) Male adult nude mice, which had the body weights of 20-24 g, were purchased from Guangdong Medical Laboratory Animal Center. After 7 days of adaptive feeding of the animals, except for the blank group, the remaining animals were injected with 0.2 ml of a cell suspension in PBS at ventrodorsal and scapula sites of them, the response conditions of the animals were observed, and the body weights of the animals were determined once a week. After 2 weeks of observation, the animals were grouped into the following groups according to tumor size: a blank group; a model group; a 5-fluorouracil control group (5-Full, 40 mg/kg); monotropein+5-fluorouracil (2 mg/kg monotropein+20 mg/kg 5-fluorouracil), desacetyl asperulosidic acid+5-fluorouracil (2 mg/kg desacetyl asperulosidic acid+20 mg/kg 5-fluorouracil), asperuloside+5-fluorouracil (2 mg/kg asperuloside+20 mg/kg 5-fluorouracil), asperulosidic acid+5-fluorouracil (2 mg/kg asperulosidic acid+20 mg/kg 5-fluorouracil), these groups being labeled as: Mo, As, Aa, Da. Each group included 8 animals; and administration was conducted once a day.
(§3) The status, death conditions, and eating and drinking conditions of the animals were observed daily. The body weights of the animals were determined once a week and the tumor size of the animals was determined every 4 days. The tumor volume of the animals was determined by using a vernier caliper. After 1 month of administration, the animals were sacrificed after blood was sampled from the orbit thereof, and the tumor was separated and weighed.

[3] = test system: vitamin D receptor; test: Expression of vitamin D receptor in colon tissues, Experiment 2 (Western blot, immunohistochemistry); type: in vivo, Balb/c mice; conditions: compared with the blank group; VD3 0.2 mg/kg, four compounds 2 mg/kg
Protocol: (§4) Experimental method: 70 Balb/c mice of 6-8 weeks were purchased from the Experimental Animal Center in Guangzhou University of Chinese Medicine, weighed about 18-22 g, and subjected to adaptive feeding for 10 days. Modeling was divided into three stages. In the first stage, except for the normal group of animals being given saline injection, each of the other animals were intraperitoneally injected with a carcinogen AOM (10 mg/kg), and given free access to 2% DSS water from the next day for 7 days, and then given access to replaced regular drinking water for 14 days. In the second stage, the animals were given free access to 2% DSS water for 10 days, and then given access to replaced regular drinking water for 14 days. In the third stage, the animals were given free access to 2% DSS water for 10 days, and then given access to replaced regular drinking water for 11 days. The normal group was given access to regular drinking water throughout the experiment. The diet, water drinking and body weights of the animals were recorded daily and DAI scores were made, and the animals were killed and harvested at the 10th week. In this experiment, the animals were divided into groups and administrated on the first day of a modeling period of the second stage, where a total of 7 groups were set, each group including 10 animals. The first group was a blank control group (control) that was given access to drinking water by gavage; the second group was a model group (model), in which a total of 10 animals were given access to drinking water by gavage; the third group was a vitamin D3 positive administration control group (VD3, 0.2 mg/kg); and the fourth to seventh groups were given monotropein, desacetyl asperulosidic acid, asperuloside, and asperulosidic acid (groups labeled as: Mo, As, Aa, Da), respectively at a given dose of 2 mg/kg. Dosing was conducted once a day until the end of the experiment. At the end of the experiment, the animals were anesthetized and harvested, and the colon tissue was taken, measured with a ruler for the length, and measured with a vernier caliper for the thickness. The effects of monotropein, desacetyl asperulosidic acid, asperuloside and asperulosidic acid on expression of the vitamin D receptor were detected.

[4] = test system: transplanted tumor of MB-231 pancreatic cancer cells; test: Transplanted tumor of MB-231 pancreatic cancer cells in nude mice; type: in vivo; conditions: 2 mg/kg in combination with 5-fluorouracil at half dose (20 mg/kg), once a day; effect comparable to 5-fluorouracil alone 40 mg/kg
Protocol: as §1, with “SMB-231 pancreatic cancer” for “SW1990”
as §2, with “of a SMB-231 pancreatic cancer cell suspension” for “of a cell suspension”
as §3

[5] = test system: HT29 colon cancer cells; test: In vitro proliferation inhibition of HT29 colon cancer cells; type: cell-based; conditions: concentration of 1 uM; compared with blank control group
Protocol: as §1, with “HT29” for “SW1990”

[6] = test system: transplanted tumor of SW1990 breast cancer cells; test: Transplanted tumor of SW1990 breast cancer cells in nude mice; type: in vivo; conditions: 2 mg/kg in combination with 5-fluorouracil at half dose (20 mg/kg), once a day; effect comparable to 5-fluorouracil alone 40 mg/kg
Protocol: as §1
as §2, with “of a SW1990 cell suspension” for “of a cell suspension”
as §3

[7] = test system: SMB-231 pancreatic cancer cells; test: In vitro proliferation inhibition of SMB-231 pancreatic cancer cells; type: cell-based; conditions: concentration of 1 uM; compared with blank control group
Protocol: as §1, with “SMB-231 pancreatic cancer” for “SW1990”

[8] = test system: AOM/DSS colon cancer model; test: AOM/DSS colon cancer model, Experiment 2 (colon length, thickness, tumors); type: in vivo, Balb/c mice; conditions: 2 mg/kg once a day
Protocol: as §4

| SMILES | proliferation of SW1990 cells in vitro [1] | tumor proliferation in HT29 tumor-bearing mice [2] | expression of the vitamin D receptor in the colon tissues (Western blot and immunohistochemistry) [3] | tumor proliferation in SMB-231 tumor-bearing mice [4] | proliferation of HT29 colorectal cancer cells in vitro [5] | tumor proliferation in SW1990 tumor-bearing mice [6] | proliferation of SMB-231 pancreatic cancer cells in vitro [7] | incidence and development of colorectal cancers [8] |
| --- | --- | --- | --- | --- | --- | --- | --- | --- |
| CC(=O)OCC1=C[C@@H]2OC(=O)C3=CO[C@@H](O[C@@H]4O[C@H](CO)[C@@H](O)[C@H](O)[C@H]4O)[C@H]1[C@@H]32 [asperuloside] | significantly inhibit the proliferation | significantly inhibit tumor proliferation | promote expression enhancement | significantly inhibit tumor proliferation | significantly inhibit the proliferation | significantly inhibit tumor proliferation | significantly inhibit the proliferation | inhibiting the incidence and development of colorectal cancers |
| CC(=O)OCC1=C[C@H](O)[C@@H]2C(C(=O)O)=CO[C@@H](O[C@@H]3O[C@H](CO)[C@@H](O)[C@H](O)[C@H]3O)[C@H]12 [asperulosidic acid] | significantly inhibit the proliferation | significantly inhibit tumor proliferation | promote expression enhancement | significantly inhibit tumor proliferation | significantly inhibit the proliferation | significantly inhibit tumor proliferation | significantly inhibit the proliferation | inhibiting the incidence and development of colorectal cancers |
| O=C(O)C1=CO[C@@H](O[C@@H]2O[C@H](CO)[C@@H](O)[C@H](O)[C@H]2O)[C@@H]2C(CO)=C[C@H](O)[C@H]12 [desacetyl asperulosidic acid] | significantly inhibit the proliferation | significantly inhibit tumor proliferation | promote expression enhancement | significantly inhibit tumor proliferation | significantly inhibit the proliferation | significantly inhibit tumor proliferation | significantly inhibit the proliferation | inhibiting the incidence and development of colorectal cancers |
| C=C1CC[C@H](O)C/C1=C/C=C1\CCC[C@]2(C)[C@@H]([C@H](C)CCCC(C)C)CC[C@@H]12 [vitamin D3, reference compound] |  |  | promote expression enhancement |  |  |  |  |  |
